Like-named read-outs stand apart in the source and are kept apart here.
Key:
[1] = target: T1, recombinant human JAK1 kinase domain protein (Residues 854-1154) (Homo sapiens, UniProt P23458); test: JAK1 biochemical assay (LabChip mobility shift, Ki); conditions: read-out: Biochem JAK1 Ki
T1 construct: human JAK1 kinase domain protein (Residues 854-1154); purchased Proteros Biostructures GmbH (Martinsried, Germany); host or cells: insect cells

[2] = target: Recombinant human JAK2 kinase domain protein (Residues 812-1132) (Homo sapiens, UniProt O60674); test: JAK2 biochemical assay (LabChip mobility shift, Ki)
Sequence of Recombinant human JAK2 kinase domain protein (Residues 812-1132) (O60674 812-1132): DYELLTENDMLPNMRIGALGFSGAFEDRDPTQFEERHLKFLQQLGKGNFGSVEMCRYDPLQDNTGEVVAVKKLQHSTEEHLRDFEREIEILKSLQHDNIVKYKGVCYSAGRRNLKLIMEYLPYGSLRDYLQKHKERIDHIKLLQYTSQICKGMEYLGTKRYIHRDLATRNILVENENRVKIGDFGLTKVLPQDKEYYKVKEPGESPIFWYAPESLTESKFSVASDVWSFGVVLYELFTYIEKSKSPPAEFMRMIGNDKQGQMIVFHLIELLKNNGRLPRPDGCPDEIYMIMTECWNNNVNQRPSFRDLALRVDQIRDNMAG
Procedure: The in vitro biochemical assays quantify JAK-catalyzed phosphorylation of a synthetic peptide, as detected using a LabChip® EZ Reader II microfluidic mobility shift instrument (PerkinElmer; Waltham, MA). […] Y-1B is fluorescently labeled on the N-terminus with 5-FAM (5-carboxyfluorescein) and contains a single tyrosine residue (Y) that can be phosphorylated by JAK activity. The substrate peptide stock is prepared in DMSO at 5 mM. […] In each titration experiment, test compound was tested in duplicate at each of the twelve concentrations. Blank reactions contained ATP, peptide, and DMSO, but no JAK or test compound, whereas uninhibited control reactions contained ATP, peptide, JAK, and DMSO, but no test compound.
Peptide plus ATP mixture (24 μL) was added to 1 μL of test compound in DMSO (or DMSO alone). The reactions were initiated by adding 25 μL of JAK enzyme to the inhibitor/peptide/ATP mixture before thoroughly mixing the resultant solution. Reactions were incubated at room temperature (22° C.-23° C.) in a final volume of 50 μL per well in 384-well plates. After a 30-minute incubation, the reactions were stopped by adding 25 μL of 150 mM ethylenediaminetetraacetic acid in 100 mM HEPES buffer (pH 7.2) containing 0.015% Brij 35 to each well.
In each reaction, the residual Y-1B substrate and the phospho-peptide product generated were separated using the EZ Reader II instrument. Electrophoretic separation of molecules of product from molecules of substrate was achieved using downstream and upstream voltages of −500 and −2600 V, respectively, at an operating pressure of −1.3 psi.
The extent (or percent) of conversion of substrate to product was calculated from the corresponding peak heights in the electropherogram using HTS Well Analyzer software, Version 5.2 (PerkinElmer), and the following equation (Equation 1): conversion=[P÷(S+P)]×100 Equation 1% where S and P represent the peak heights of the substrate and product, respectively. After any baseline signal from blank wells containing no JAK was subtracted from the signal of all test wells, the % conversion data were converted to fractional activity as shown in Equation 2, where vi and vo are the % conversion in the presence and absence of test compound, respectively.

[3] = test system: IL-13-stimulated STAT6 phosphorylation in human lung bronchial epithelial BEAS-2B cell line; test: P-STAT6 BEAS-2B + IL-13 cell assay; type: cell-based; conditions: BEAS2B cells, IL13 stimulation, read-out: Cellular JAK1 PSTAT6 BEAS2B + IL13
Summary of the method: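 BEAS-2B cells grown 48 h at 37 °C, pre-treated 1 h with compound (10-point 1:2 dilution curve), then stimulated 15 min with human recombinant IL-13 (250 ng/mL stock). Lysate P-STAT6 (Tyr641) read by MSD sandwich ELISA with total-STAT6 capture; IC50 from four-parameter logistic fit of control-normalised data.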

T1 sequence (P23458 854-1154): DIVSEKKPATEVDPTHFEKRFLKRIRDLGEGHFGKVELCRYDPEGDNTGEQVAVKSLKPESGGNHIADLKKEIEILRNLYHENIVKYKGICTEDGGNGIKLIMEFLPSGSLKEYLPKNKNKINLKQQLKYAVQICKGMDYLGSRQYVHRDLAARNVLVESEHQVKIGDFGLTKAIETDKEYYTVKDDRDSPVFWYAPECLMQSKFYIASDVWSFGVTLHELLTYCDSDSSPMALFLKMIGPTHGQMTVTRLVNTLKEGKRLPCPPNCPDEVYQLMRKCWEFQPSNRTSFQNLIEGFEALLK

Compound	Ki [1] [nM]	Ki ([2]; Biochem JAK2 Ki) [nM]	IC50 ([3]; Homo sapiens, BEAS-2B) [nM]	Ki ([2]; read-out: Biochem JAK2 Ki) [nM]	IC50 [3] [nM]
CN1CCC(n2cc(Oc3ccc(OC(F)F)c(-c4nn(C)cc4NC(=O)c4cnn5cccnc45)c3)cn2)CC1 [Example 203, N-[3-[2-(difluoromethoxy)-5-[1-(1-methyl-4-piperidyl)pyrazol-4-yl]oxy-phenyl]-1-methyl-pyrazol-4-yl]pyrazolo[1,5-a]pyrimidine-3-carboxamide]	2.5	2.3	75		
O=C(Nc1c[nH]nc1-c1cc(Oc2cccc(C3(O)CNC3)c2)ccc1OC(F)F)c1cnn2cccnc12 [Example 137, N-[3-[2-(difluoromethoxy)-5-[3-(3-hydroxyazetidin-3-yl)phenoxy]phenyl]-1H-pyrazol-4-yl]pyrazolo[1,5-a]pyrimidine-3-carboxamide;2,2,2-trifluoroacetic acid]	0.82			0.51	1000
Cn1cc(NC(=O)c2cnn3cccnc23)c(-c2cc(Oc3cnn(CCN)c3)ccc2OC(F)F)n1 [Example 126, N-[3-[5-[1-(2-aminoethyl)pyrazol-4-yl]oxy-2-(difluoromethoxy)phenyl]-1-methyl-pyrazol-4-yl]pyrazolo[1,5-a]pyrimidine-3-carboxamide]	1.1	0.91	67		
O=C(Nc1c[nH]nc1-c1cc(Oc2cccc(CNC3COC3)c2)ccc1OC(F)F)c1cnn2cccnc12 [Example 11, N-[3-[2-(difluoromethoxy)-5-[3-[(oxetan-3-ylamino)methyl]phenoxy]phenyl]-1H-pyrazol-4-yl]pyrazolo[1,5-a]pyrimidine-3-carboxamide]	1	0.69	190		
O=C(Nc1c[nH]nc1-c1cc(Oc2cccc(C3CNCCO3)c2)ccc1OC(F)F)c1cnn2cccnc12 (stereo not drawn) [Example 9, N-[3-[2-(difluoromethoxy)-5-(3-morpholin-2-ylphenoxy)phenyl]-1H-pyrazol-4-yl]pyrazolo[1,5-a]pyrimidine-3-carboxamide]	0.34	0.36	93		
Cn1cc(NC(=O)c2cnn3cccnc23)c(-c2cc(Oc3cc(C(F)(F)F)cc(C4(O)CNC4)c3)ccc2OC(F)F)n1 [Example 105, N-[3-[2-(difluoromethoxy)-5-[3-(3-hydroxyazetidin-3-yl)-5-(trifluoromethyl)phenoxy]phenyl]-1-methyl-pyrazol-4-yl]pyrazolo[1,5-a]pyrimidine-3-carboxamide]	0.49	0.43	81		
Cn1cc(NC(=O)c2cnn3cccnc23)c(-c2cc(Oc3cnn(CC4(O)CNC4)c3)ccc2OC(F)F)n1 [Example 122, N-[3-[2-(difluoromethoxy)-5-[1-[(3-hydroxyazetidin-3-yl)methyl]pyrazol-4-yl]oxy-phenyl]-1-methyl-pyrazol-4-yl]pyrazolo[1,5-a]pyrimidine-3-carboxamide]	0.52	0.56	390		
Cn1cc(NC(=O)c2cnn3cccnc23)c(-c2cc(Oc3cnn(C4CNC4)c3)ccc2OC(F)F)n1 [Example 116, N-[3-[5-[l-(azetidin-3-yl)pyrazol-4-yl]oxy-2-(difluoromethoxy)phenyl]-1-methyl-pyrazol-4-yl]pyrazolo[1,5-a]pyrimidine-3-carboxamide]	1.5	0.84	95		
N#CCc1ccc(Oc2ccc(OC(F)F)c(-c3n[nH]cc3NC(=O)c3cnn4cccnc34)c2)cc1 [Example 8, N-[3-[5-[4-(cyanomethyl)phenoxy]-2-(difluoromethoxy)phenyl]-1H-pyrazol-4-yl]pyrazolo[1,5-a]pyrimidine-3-carboxamide]	0.18	0.14	7.6		
Cc1ccc(Oc2ccc(OC(F)F)c(-c3nn(CC4CCCN4C)cc3NC(=O)c3cnn4cccnc34)c2)cc1C(=O)N(C)C (racemic) [Example 51, N-[3-[2-(difluoromethoxy)-5-[3-(dimethylcarbamoyl)-4-methyl-phenoxy]phenyl]-1-[[rac-(2R)-1-methylpyrrolidin-2-yl]methyl]pyrazol-4-yl]pyrazolo[1,5-a]pyrimidine-3-carboxamide]	1.3	1.8	45		

More lines, in order of falling Ki [1], values ahead:

Ki [1] [nM]	Ki ([2]; Biochem JAK2 Ki) [nM]	Compound	IC50 ([3]; Homo sapiens, BEAS-2B) [nM]	Ki ([2]; read-out: Biochem JAK2 Ki) [nM]	IC50 [3] [nM]
1.6	1.7	CN1CC(O)(c2cc(Oc3ccc(OC(F)F)c(-c4nn(C)cc4NC(=O)c4cnn5cccnc45)c3)cc(C(F)(F)F)c2)C1 [Example 106, N-[3-[2-(difluoromethoxy)-5-[3-(3-hydroxy-1-methyl-azetidin-3-yl)-5-(trifluoromethyl)phenoxy]phenyl]-1-methyl-pyrazol-4-yl]pyrazolo[1,5-a]pyrimidine-3-carboxamide]	74		
1.5	0.66	CN1CC(CC#N)(n2cc(Oc3ccc(OC(F)F)c(-c4nn(C)cc4NC(=O)c4cnn5cccnc45)c3)cn2)C1 [Example 117, N-[3-[5-[1-[3-(cyanomethyl)-1-methyl-azetidin-3-yl]pyrazol-4-yl]oxy-2-(difluoromethoxy)phenyl]-1-methyl-pyrazol-4-yl]pyrazolo[1,5-a]pyrimidine-3-carboxamide]	84		
1.4	4.4	CN1CCCC1Cn1cc(NC(=O)c2cnn3cccnc23)c(-c2cc(Oc3cccc(C4CNCCO4)c3)ccc2OC(F)F)n1 (racemic) [Example 41, N-[3-[2-(difluoromethoxy)-5-(3-morpholin-2-ylphenoxy)phenyl]-1-[[rac-(2R)-1-methylpyrrolidin-2-yl]methyl]pyrazol-4-yl]pyrazolo[1,5-a]pyrimidine-3-carboxamide]	210		
1.3	0.53	Cn1cc(NC(=O)c2cnn3cccnc23)c(-c2cc(Oc3ccc4c(c3)CN(C3COC3)CC4)ccc2OC(F)F)n1 [Example 69, N-[3-[2-(difluoromethoxy)-5-[[2-(oxetan-3-yl)-3,4-dihydro-1H-isoquinolin-7-yl]oxy]phenyl]-1-methyl-pyrazol-4-yl]pyrazolo[1,5-a]pyrimidine-3-carboxamide]	37		
0.84	0.6	CCN1CCC(O)(Cn2cc(Oc3ccc(OC(F)F)c(-c4nn(C)cc4NC(=O)c4cnn5cccnc45)c3)cn2)CC1 [Example 212, N-[3-[2-(difluoromethoxy)-5-[1-[(1-ethyl-4-hydroxy-4-piperidyl)methyl]pyrazol-4-yl]oxy-phenyl]-1-methyl-pyrazol-4-yl]pyrazolo[1,5-a]pyrimidine-3-carboxamide]	120		
0.38	0.56	CCn1cc(NC(=O)c2cnn3cccnc23)c(-c2cc(Oc3cc(F)cc(C4(O)CNC4)c3)ccc2OC(F)F)n1 [Example 111, N-[3-[2-(difluoromethoxy)-5-[3-fluoro-5-[3-hydroxyazetidin-3-yl)phenoxy]phenyl]-1-ethyl-pyrazol-4-yl]pyrazolo[1,5-a]pyrimidine-3-carboxamide]	270		
0.28	0.17	Cn1cc(NC(=O)c2cnn3cccnc23)c(-c2cc(Oc3ccc(CC(=O)N4CCC4)cc3)ccc2OC(F)F)n1 [Example 149, N-[3-[5-[4-[2-(azetidin-1-yl)-2-oxo-ethyl]phenoxy]-2-(difluoromethoxy)phenyl]-1-methyl-pyrazol-4-yl]pyrazolo[1,5-a]pyrimidine-3-carboxamide]	20		
